{
  "source": "patent US12325710B2",
  "about": "“Substituted 1,2,3,4,5,6-hexahydroazepino[4,5-b]indoles for treating brain disorders” (priority 2019, dated 2025)",
  "key": {"zebrafish": {"system": "zebrafish", "test": "Zebrafish developmental toxicity assay", "format": "in vivo"}, "C57/BL6J mice": {"system": "C57/BL6J mice", "test": "Forced swim test (FST)", "format": "in vivo, mouse", "conditions": "24 h after drug administration; TBG 50 mg/kg, ketamine 3 mg/kg i.p.", "method": "Forced Swim Test (FST). Male C57/BL6J mice (9-10 weeks old at time of experiment, n=10 per condition) were obtained from the Jackson Lab and housed 4-5 mice/cage in a UCD vivarium following an IACUC approved protocol. After 1 week in the vivarium each mouse was handled for approximately 1 minute by a experimenter for 3 consecutive days leading up to the first FST. All experiments were carried out by the same experimenter who performed handling. During the FST, mice underwent a 6 min swim session in a clear Plexiglas cylinder 40 cm tall, 20 cm in diameter, and filled with 30 cm of 24±1° C. water. Fresh water was used for every mouse. After handling and habituation to the experimenter, drug-naïve mice first underwent a pretest swim to more reliably induce a depressive phenotype in the subsequent FST sessions. Immobility scores for all mice were determined after the pre-test and mice were randomly assigned to treatment groups to generate groups with similar average immobility scores to be used for the following two FST sessions. […] Experiments were video-recorded and manually scored offline. Immobility time—defined as passive floating or remaining motionless with no activity other than that needed to keep the mouse's head above water—was scored for the last 4 min of the 6 min trial."}},
  "note": "“Also recorded” adds a separate entry of the source.",
  "data": [
    {"smiles": "COc1ccc2c3c([nH]c2c1)CCN(C)CC3", "note": "[TBG]", "values": [
      {"measurement": "proportion of viable to non-viable fish", "setting": "zebrafish; 66 μM, 5 dpf", "value": "statistically indistinguishable from vehicle control; also recorded: does not cause developmental toxicity"},
      {"measurement": "malformations, mortality, non-viable fish", "setting": "zebrafish; 100 μM, 2 and 5 dpf", "value": "significantly fewer non-viable fish than ibogaine or noribogaine treatments"},
      {"measurement": "immobility in FST", "setting": "C57/BL6J mice", "value": "antidepressant-like effects; also recorded: significantly reduced immobility"}
    ]}
  ]
}
